From ChEMBL document CHEMBL1212815, “Quinolines and structurally related heterocycles as antimalarials” (Eur J Med Chem, 2010)
≈ marks a conversion by molar mass, not a printed value. Calls of active or inactive are those of the source. No cut-off for these calls is given here.

Tests used:
[1] = Inhibition of Plasmodium falciparum protein farnesyltransferase
[2] = system: Plasmodium falciparum; assay: Antimalarial activity against chloroquine-resistant Plasmodium falciparum 3D7; assay type: functional, organism-based; conditions: read-out: ED50 (the source's name)
[3] = system: Plasmodium falciparum; assay: Antimalarial activity against Plasmodium falciparum; assay type: functional, organism-based
[4] = system: Plasmodium berghei; assay: Antiplasmodial activity against Plasmodium berghei infected in perorally dosed mice (Mus musculus); assay type: functional, organism-based
[5] = system: Plasmodium falciparum; assay: Antimalarial activity against chloroquine-resistant Plasmodium falciparum; assay type: functional, organism-based
[6] = Inhibition of Plasmodium falciparum falcipain-2
[7] = system: Plasmodium chabaudi; assay: Antiplasmodial activity against Plasmodium chabaudi infected in mice (Mus musculus) assessed as reduction in parasitaemia measured at 50 mg/kg, perorally daily for 4 days; assay type: functional, organism-based; design: dose 50 mg/kg
[8] = system: Plasmodium falciparum; assay: Antimalarial activity against chloroquine-sensitive Plasmodium falciparum; assay type: functional, organism-based
[9] = system: Plasmodium falciparum; assay: Antimalarial activity against Plasmodium falciparum FAC8; assay type: functional, organism-based
[10] = Inhibition of Plasmodium falciparum DHFR
[11] = target: Plasmepsin II (Plasmodium falciparum, UniProt P46925); assay: Inhibition of Plasmodium falciparum plasmepsin-2
[12] = Dissociation constant, pKa of the compound; assay type: physicochemical
[13] = system: Plasmodium falciparum; assay: Selectivity index, ratio of IC50 for Plasmodium falciparum D6 to IC50 for Plasmodium falciparum W2; assay type: functional
[14] = system: Plasmodium falciparum; assay: Antimalarial activity against chloroquine-resistant Plasmodium falciparum K1; assay type: functional, organism-based
[15] = system: Plasmodium berghei; assay: Antiplasmodial activity against Plasmodium berghei infected in mice (Mus musculus) assessed as suppression of parasitaemia at 100 mg/kg, po; assay type: functional
[16] = system: Plasmodium falciparum; assay: Antimalarial activity against chloroquine-resistant Plasmodium falciparum HB3; assay type: functional, organism-based
[17] = system: Plasmodium falciparum; assay: Antimalarial activity against chloroquine-resistant Plasmodium falciparum Dd2; assay type: functional, organism-based
[18] = Toxicity in mouse assessed as maximum tolerated dose; assay type: organism-based; conditions: in vivo, read-out: Activity
[19] = system: Plasmodium falciparum; assay: Antimalarial activity against chloroquine-resistant Plasmodium falciparum W2; assay type: functional, organism-based
[20] = system: Plasmodium falciparum; assay: Antimalarial activity against chloroquine-resistant Plasmodium falciparum FcB1; assay type: functional, organism-based; conditions: FcB1/Columbia
[21] = system: Plasmodium vinckei; assay: Antiplasmodial activity against Plasmodium vinckei infected in mice (Mus musculus) assessed as reduction in parasitemia measured per day for 4 days; assay type: functional; conditions: 96 h
[22] = system: Plasmodium falciparum; assay: Antimalarial activity against chloroquine-resistant Plasmodium falciparum D10; assay type: functional, organism-based

Chain of Plasmepsin II (P46925 whole entry): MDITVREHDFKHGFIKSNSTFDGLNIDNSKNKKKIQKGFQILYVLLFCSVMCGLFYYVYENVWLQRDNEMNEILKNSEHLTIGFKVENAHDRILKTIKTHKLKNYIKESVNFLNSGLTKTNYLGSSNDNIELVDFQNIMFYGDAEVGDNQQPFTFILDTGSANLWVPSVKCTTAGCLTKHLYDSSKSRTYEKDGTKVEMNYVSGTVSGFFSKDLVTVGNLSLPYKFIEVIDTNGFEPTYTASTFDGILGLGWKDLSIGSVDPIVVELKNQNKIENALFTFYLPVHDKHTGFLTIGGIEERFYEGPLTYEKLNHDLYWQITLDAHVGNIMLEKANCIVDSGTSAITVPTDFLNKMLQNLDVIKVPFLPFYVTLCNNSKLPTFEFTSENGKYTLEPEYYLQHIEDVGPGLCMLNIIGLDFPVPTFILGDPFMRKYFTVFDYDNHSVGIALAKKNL

Structure (SMILES): Cn1cnc(S(=O)(=O)N(Cc2ccccc2)C2Cc3cc(C#N)ccc3N(Cc3cncn3C)C2)c1 (stereo not given)
- IC50 [1]: 0.6 nM
- EC50 [2]: 5 nM

Structure (SMILES): N=C(N)c1ccc(OCCCCCOc2ccc(C(=N)N)cc2)cc1 [PENTAMIDINE]
- IC50 ([3]; Plasmodium falciparum): 2.9 µg/mL
- IC90 ([3]; Plasmodium falciparum): 6.5 µg/mL (≈ 19.1 µM)

Structure (SMILES): OC1(C(F)(F)F)CC(c2ccc(Cl)cc2)=NN1c1ccnc2cc(Cl)ccc12 (stereo not given)
- IC50 ([4]; Plasmodium berghei): 1.39 µg/mL

Structure (SMILES): O=C1CSC(c2c(Cl)cccc2Cl)N1CCNc1ccnc2cc(Cl)ccc12 (stereo not given)
- IC50 [5]: 13 nM

Structure (SMILES): CC1(C(=O)NC2CCCCC2)CCCC(=O)N1CCCCCCNc1ccnc2cc(Cl)ccc12 (stereo not given)
- IC50 [6]: 17700 nM

Structure (SMILES): Clc1ccc2c(N3CCN(Cc4ccccc4Br)CC3)ccnc2c1
- IC50 [5]: 11400 nM

Structure (SMILES): O=C1CCSC(c2ccc(Cl)cc2)N1CCCNc1ccnc2cc(Cl)ccc12 (stereo not given)
- IC50 [5]: 13 nM

Structure (SMILES): OC1(C(F)(F)F)CC(c2ccccc2)=NN1c1ccnc2cc(Cl)ccc12 (stereo not given)
- IC50 ([4]; Plasmodium berghei): 1.06 µg/mL

Structure (SMILES): Clc1cccc(C(Nc2ccnc3cc(Cl)ccc23)c2ccc(CN3CCCC3)cc2)c1 (stereo not given)
- Activity [7]: Active

Structure (SMILES): CCCCCOc1c(OC)cc(NC(C)CCCN)c2nccc(CC)c12 (stereo not given)
- IC50 [5]: 0.0097 µg/mL
- IC50 [8]: 0.0094 µg/mL

Structure (SMILES): CCN(CC)CCCC(C)Nc1ccnc2c(NC(=O)CCCCC(=O)Nc3cccc4c(NC(C)CCCN(CC)CC)ccnc34)cccc12 (stereo not given)
- IC50 [9]: 120 nM

Structure (SMILES): Cc1cc(NC(=O)CN2CCN(C)CC2)c2cc(NC(=O)Nc3cc(Cl)cc(Cl)c3)ccc2n1
- IC50 [10]: 0.0004 µg/mL (≈ 0.000798 µM)

Structure (SMILES): CCCCNC(=O)C[C@H](O)[C@H](CC(C)C)NC(=O)[C@@H](NC(=O)c1ccc(Oc2ccc(C(=O)N[C@@H](CC(C)C)C(=O)N[C@@H](CCCCN)C(=O)NCCCC(C)Nc3cc(OC)cc4cccnc34)cc2)cc1)[C@@H](C)CC (stereo not given in full)
- IC50 [11]: 0.59 nM

Structure (SMILES): CCN(CC)Cc1cc(N)cc(Nc2ccnc3cc(Cl)ccc23)c1
- IC50 ([4]; Plasmodium berghei): 18.1 nM

Structure (SMILES): C1CC2CCC1CN2 [ISOQUINUCLIDINE]
- pKa [12]: 11

Structure (SMILES): Clc1ccc2c(NCC[C@H]3CCN4CCCC[C@@H]4C3)ccnc2c1
- IC50 [5]: 21 nM

Structure (SMILES): CN1CC2CCC1C(CNc1ccnc3cc(Cl)ccc13)C2 (stereo not given)
- Ratio IC50 [13]: >1200

Structure (SMILES): CCN(CC)Cc1ccc(Nc2ccnc3cc(Cl)ccc23)cc1O [ISOQUINE]
- IC50 [14]: 6.01 nM

Structure (SMILES): COc1cc(NC(C)CCCN)c2nc(C(C)(C)C)ccc2c1 (stereo not given)
- Activity [15]: 100%

Structure (SMILES): Clc1ccc2c(NC[C@H]3CCN4CCCC[C@@H]4C3)ccnc2c1
- IC50 [5]: 21 nM

Structure (SMILES): Clc1ccc2c(N3CCN(CCCN4CCN(c5ccnc6cc(Cl)ccc56)CC4)CC3)ccnc2c1 [PIPERAQUINE]
- IC50 [8]: 36 nM

Structure (SMILES): O=C1c2ccccc2SCN1CCNc1ccnc2cc(Cl)ccc12
- IC50 [5]: 13 nM

Structure (SMILES): Cc1cc(NC(=O)c2ccco2)c2cc(NC(=O)Nc3cccc(C#N)c3)ccc2n1
- IC50 [10]: 0.0004 µg/mL (≈ 0.000972 µM)

Structure (SMILES): Clc1ccc2c(N3CCNCC3)ccnc2c1
- IC50 [5]: 1020 nM
- IC50 [8]: 1020 nM

Structure (SMILES): CCN(CCNc1ccnc2cc(Cl)ccc12)CCNS(=O)(=O)c1ccc2c(N(C)C)cccc2c1
- IC50 [16]: 17.5 nM
- IC50 [17]: 22.7 nM

Structure (SMILES): OC1(C(F)(F)F)CC(c2ccc(Br)cc2)=NN1c1ccnc2cc(Cl)ccc12 (stereo not given)
- IC50 ([4]; Plasmodium berghei): 1.39 µg/mL

Structure (SMILES): CCOC(=O)c1c(C)nc2ccc(Cl)cc2c1-c1ccccc1
- IC50 ([3]; Plasmodium falciparum): 4.47 µg/mL

Structure (SMILES): O=C(NCCNc1ccnc2cc(Cl)ccc12)C1CCC2(CC1)OOC1(CCCCC1)OO2
- Activity [4]: 80 mg/kg
- MTD [18]: > 960 mg/kg

Structure (SMILES): COc1cc2cc(/C=C/C(=O)c3ccc(Cl)cc3Cl)c(Cl)nc2cc1OC
- IC50 ([3]; Plasmodium falciparum): 19000 nM

Structure (SMILES): Clc1ccc2c(N[C@H]3CCN4CCCC[C@@H]4C3)ccnc2c1
- IC50 [19]: 23.3 nM
- IC50 [5]: 21 nM

Structure (SMILES): CC(C)C1=C[C@H]2OC3(CCC(NCCNc4ccnc5cc(Cl)ccc45)CC3)OO[C@@]2(C)CC1.O=C(O)CC(O)(CC(=O)O)C(=O)O (stereo not given in full)
- IC50 [20]: 15 nM
- ED50 [21]: 5 mg/kg

Structure (SMILES): Clc1ccc2c(NCCC[C@H]3CCN4CCCC[C@@H]4C3)ccnc2c1
- IC50 [5]: 21 nM

Structure (SMILES): CN(CC(O)CNCc1ccc(Cl)c(Cl)c1)S(=O)(=O)c1cccc2cnccc12 (stereo not given)
- MIC ([3]; Plasmodium falciparum): 2 µg/mL (≈ 4.4 µM)

Structure (SMILES): CN(C)CCCN(CCCN(C)C)CCCN1c2ccccc2Sc2ccc(Cl)cc21
- IC50 [22]: 120 nM

Structure (SMILES): Clc1ccc2c(NCCNCC3CCC4(CC3)OOC3(CCCCC3)OO4)ccnc2c1
- Activity [4]: 80 mg/kg
- MTD [18]: > 960 mg/kg

Structure (SMILES): COc1cc2cc(/C=C3\CCc4c(OC)cccc4C3=O)c(Cl)nc2cc1OC
- inhibition (INH) [3]: 50%

Structure (SMILES): CCC(=O)CCCCC[C@@H]1NC(=O)[C@H]2CCCCN2C(=O)[C@H]([C@H](C)CC)NC(=O)[C@H](c2c[nH]c3ccccc3c2=O)NC1=O
- IC50 [5]: 0.04 µg/mL
- IC50 [8]: 0.04 µg/mL

Structure (SMILES): CCOC(=O)c1c(CN2CCCCC2)nc2ccc(Cl)cc2c1-c1ccccc1
- IC50 ([3]; Plasmodium falciparum): 2.56 µg/mL

Structure (SMILES): O=C(CN(CCCNc1ccnc2cc(Cl)ccc12)C(=O)c1ccncc1)NC1CCCCC1
- IC50 [5]: 73 nM

Structure (SMILES): CC(C)(C)NCc1cc(Nc2ccnc3cc(Cl)ccc23)ccc1F
- ED50 ([4]; Plasmodium berghei): 5.3 mg/kg
